{
  "source": "patent US4681970A",
  "about": "“Bicyclo-substituted phenylacetonitrile derivatives” (G. D. Searle & Co., priority 1986, dated 1987)",
  "key": {"[1]": {"system": "spontaneously hypertensive rats (SHR)", "conditions": "clinically useful reference agents; cited from earlier work"}, "[2]": {"conditions": "compared with verapamil hydrochloride; cited from earlier work"}, "[3]": {"system": "atrial-ventricular conduction", "conditions": "compared with verapamil or diltiazem"}, "anesthetized beagle dogs": {"system": "anesthetized beagle dogs", "experiment": "Antihypertensive effect in anesthetized beagle dogs, i.v.", "assay_type": "in vivo, beagle dog", "conditions": "for maximum hypotensive effect: compounds of the invention, verapamil and diltiazem compared"}, "[4]": {"target": "T1, Isolated thoracic aortic rings from the male SHR (Rattus norvegicus, UniProt P22002)", "T1 sequence (P22002 whole entry)": "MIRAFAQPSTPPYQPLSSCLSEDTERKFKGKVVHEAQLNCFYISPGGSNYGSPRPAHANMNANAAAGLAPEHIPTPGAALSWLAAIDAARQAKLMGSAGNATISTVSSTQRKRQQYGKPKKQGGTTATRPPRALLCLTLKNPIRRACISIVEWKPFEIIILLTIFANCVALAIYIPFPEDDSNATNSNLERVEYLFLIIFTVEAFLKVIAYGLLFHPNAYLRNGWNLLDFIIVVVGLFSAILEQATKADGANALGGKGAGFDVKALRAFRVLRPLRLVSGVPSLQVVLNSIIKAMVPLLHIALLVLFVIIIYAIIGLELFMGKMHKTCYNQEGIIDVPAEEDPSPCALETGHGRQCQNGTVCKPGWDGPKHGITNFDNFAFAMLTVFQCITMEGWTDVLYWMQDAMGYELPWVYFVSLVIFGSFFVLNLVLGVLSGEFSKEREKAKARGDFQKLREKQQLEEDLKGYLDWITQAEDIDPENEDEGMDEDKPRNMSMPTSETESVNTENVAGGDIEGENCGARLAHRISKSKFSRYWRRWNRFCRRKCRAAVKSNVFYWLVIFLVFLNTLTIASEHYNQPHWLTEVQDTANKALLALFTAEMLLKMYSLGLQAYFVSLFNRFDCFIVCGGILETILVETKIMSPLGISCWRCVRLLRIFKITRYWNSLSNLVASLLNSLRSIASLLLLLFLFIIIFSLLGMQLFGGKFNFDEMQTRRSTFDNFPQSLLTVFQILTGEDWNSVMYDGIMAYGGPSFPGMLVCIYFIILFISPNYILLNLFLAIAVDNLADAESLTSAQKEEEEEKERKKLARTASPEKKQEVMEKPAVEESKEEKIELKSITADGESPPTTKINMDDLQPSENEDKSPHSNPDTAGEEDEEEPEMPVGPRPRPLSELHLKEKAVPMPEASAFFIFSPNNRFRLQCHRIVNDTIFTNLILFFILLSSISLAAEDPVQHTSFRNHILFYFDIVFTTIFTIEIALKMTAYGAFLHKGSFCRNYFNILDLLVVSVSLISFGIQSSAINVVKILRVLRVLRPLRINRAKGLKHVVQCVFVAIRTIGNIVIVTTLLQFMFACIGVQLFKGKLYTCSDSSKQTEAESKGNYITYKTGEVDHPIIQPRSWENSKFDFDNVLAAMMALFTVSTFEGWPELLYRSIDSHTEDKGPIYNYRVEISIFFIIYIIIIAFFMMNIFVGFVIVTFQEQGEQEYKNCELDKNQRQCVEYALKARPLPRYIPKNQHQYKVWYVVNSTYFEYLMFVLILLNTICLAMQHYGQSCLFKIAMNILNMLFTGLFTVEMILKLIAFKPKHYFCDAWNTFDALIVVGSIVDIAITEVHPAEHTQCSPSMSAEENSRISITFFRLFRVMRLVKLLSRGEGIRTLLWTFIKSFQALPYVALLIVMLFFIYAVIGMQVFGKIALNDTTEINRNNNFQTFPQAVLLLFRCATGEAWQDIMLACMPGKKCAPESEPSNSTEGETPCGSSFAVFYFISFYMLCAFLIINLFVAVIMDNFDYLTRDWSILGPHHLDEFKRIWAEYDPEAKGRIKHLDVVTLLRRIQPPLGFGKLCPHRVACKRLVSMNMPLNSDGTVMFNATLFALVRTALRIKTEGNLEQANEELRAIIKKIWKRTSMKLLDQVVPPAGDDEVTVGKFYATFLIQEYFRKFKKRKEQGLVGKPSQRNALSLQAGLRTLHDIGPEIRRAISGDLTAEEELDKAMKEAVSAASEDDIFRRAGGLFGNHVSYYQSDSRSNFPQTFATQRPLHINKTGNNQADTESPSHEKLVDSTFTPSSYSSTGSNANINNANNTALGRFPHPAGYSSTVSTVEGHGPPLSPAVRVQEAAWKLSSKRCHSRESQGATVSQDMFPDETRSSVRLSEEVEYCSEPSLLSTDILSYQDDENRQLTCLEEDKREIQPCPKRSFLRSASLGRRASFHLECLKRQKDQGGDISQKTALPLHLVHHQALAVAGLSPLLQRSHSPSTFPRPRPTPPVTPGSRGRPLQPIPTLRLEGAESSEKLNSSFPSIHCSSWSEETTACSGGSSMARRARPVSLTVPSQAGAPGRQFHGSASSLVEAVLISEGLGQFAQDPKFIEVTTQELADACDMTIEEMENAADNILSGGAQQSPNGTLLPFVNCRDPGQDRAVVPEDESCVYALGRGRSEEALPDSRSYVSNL", "T1 sequence (P54290 25-944 partner limits assumed)": "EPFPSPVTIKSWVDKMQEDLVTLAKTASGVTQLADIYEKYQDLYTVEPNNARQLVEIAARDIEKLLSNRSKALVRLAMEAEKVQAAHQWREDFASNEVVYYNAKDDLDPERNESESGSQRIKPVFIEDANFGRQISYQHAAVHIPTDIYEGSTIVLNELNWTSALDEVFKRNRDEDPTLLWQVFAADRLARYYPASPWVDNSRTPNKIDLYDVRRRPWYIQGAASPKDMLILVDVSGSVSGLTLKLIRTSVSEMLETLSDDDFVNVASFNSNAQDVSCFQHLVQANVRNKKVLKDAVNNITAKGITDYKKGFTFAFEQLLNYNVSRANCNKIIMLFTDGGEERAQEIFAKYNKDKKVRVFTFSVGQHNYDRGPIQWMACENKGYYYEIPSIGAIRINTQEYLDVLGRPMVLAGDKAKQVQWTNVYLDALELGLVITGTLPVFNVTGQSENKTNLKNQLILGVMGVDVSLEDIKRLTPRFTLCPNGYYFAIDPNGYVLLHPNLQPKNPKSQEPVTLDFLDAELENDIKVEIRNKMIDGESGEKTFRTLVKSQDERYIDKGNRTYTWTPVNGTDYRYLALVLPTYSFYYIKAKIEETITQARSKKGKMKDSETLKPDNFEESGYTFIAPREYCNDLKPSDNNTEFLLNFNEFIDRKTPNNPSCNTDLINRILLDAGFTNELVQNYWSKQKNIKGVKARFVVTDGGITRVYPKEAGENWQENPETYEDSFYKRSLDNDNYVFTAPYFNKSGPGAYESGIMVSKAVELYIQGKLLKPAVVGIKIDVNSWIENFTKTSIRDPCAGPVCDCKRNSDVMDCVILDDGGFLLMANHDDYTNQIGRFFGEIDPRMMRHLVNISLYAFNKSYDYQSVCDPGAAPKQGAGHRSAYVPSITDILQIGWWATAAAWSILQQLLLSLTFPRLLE", "T1 sequence (P54290 945-1091 partner limits assumed)": "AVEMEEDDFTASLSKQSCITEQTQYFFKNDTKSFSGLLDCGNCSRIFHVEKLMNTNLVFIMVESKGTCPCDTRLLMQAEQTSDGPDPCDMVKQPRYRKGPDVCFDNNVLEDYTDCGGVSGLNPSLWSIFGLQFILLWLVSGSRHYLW", "experiment": "Calcium antagonism in vascular smooth muscle (isolated thoracic aortic rings from male SHR)", "assay_type": "cell-based", "conditions": "read-out: pA2 Ca^++ Antagonism (converted)", "experimental": "Isolated thoracic aortic rings from the male SHR were utilized in this test procedure.\nThe excised aortic ring was mounted in a tissue bath containing modified Kreb's solution. After depolarization of the tissue with potassium chloride (100 mM), calcium in cumulative concentrations of 1×10^-3 M, 3.2×10^-3 M, and 1×10^-2 M was injected into the bath to produce vascular smooth muscle contraction. The developed tension (in grams) was measured and control dose-response values obtained. After one hour of incubation with a test compound at 1×10^-6 M concentration, the same doses of calcium ions were repeated. The log dose-response curves of the control and after treatment were analyzed by linear regression. The pA2 value was calculated as a measure of calcium antagonism of the test compound. See Van Rossum, J. M., Arch. Int. Pharmacodyn, 143, 299-330, 1963.\nCalcium ions play an essential role in induction and maintenance of vascular smooth muscle contractility. In potassium depolarized vascular smooth muscle, calcium antagonists may block the entry of calcium ions into the cell or act by other mechanisms to inhibit the contractions induced by calcium ions. The inhibition of calcium ion--induced contraction of vascular smooth muscle is used to test compounds for vascular calcium antagonism. Cardiovascular diseases such as arrhythmias, angina-pectoris, hypertension, and peripheral vascular disease may be causally related to abnormalities in cellular handling of calcium ions."}, "[5]": {"system": "spontaneously hypertensive rats (SHR)", "experiment": "Antihypertensive activity in unanesthetized spontaneously hypertensive rats (SHR)", "assay_type": "in vivo, rat", "conditions": "for duration of antihypertensive effect: oral", "experimental": "The test procedures employed to measure these activities are described below.\nMale, unanesthetized spontaneously hypertensive rats (SHR), 11 to 16 weeks old were used in this test procedure. […]\nInitial mean arterial blood pressure was measured directly via a previously implanted arterial catheter immediately before administration of the test compound. Blood pressure readings were made at hourly intervals, 24 hours per day, for 3 days following oral administration of the test compound and at 5, 10, and 15 minutes following intravenous administration. […] Statistical comparisons were made using the analysis of variance test with two sided probability calculations."}, "[6]": {"target": "T1, Isolated thoracic aortic rings from the male SHR", "conditions": "reference drugs, potassium depolarized vascular smooth muscle; cited from earlier work"}, "[7]": {"conditions": "SHR, 10 mg/kg/day for three days"}, "[8]": {"conditions": "conscious SHR, 50 mg/kg/day for three days"}, "[9]": {"conditions": "ratio of the dose required to slow or block atrial-ventricular conduction to the dose required to lower arterial pressure by 20 mmHg"}, "[10]": {"conditions": "ratio of the dose to decrease heart rate to the dose to lower arterial pressure"}},
  "note": "Where a name gives a salt, the structure may show the parent alone.",
  "data": [
    {"smiles": "C[C@](N)(Cc1ccc(O)c(O)c1)C(=O)O", "note": "[Aldomet]", "values": [
      {"measurement": "active in the hypertensive rat assay", "setting": "[1]", "value": "active"}
    ]},
    {"smiles": "CCCCCCCCCCCCC(C#N)(CCCN(C)CCc1cccc(OC)c1)c1cccc(OC)c1", "note": "(stereo not drawn) [Anipamil, 2-(3-methoxyphenyl)-2[3-[N-[2-(3-methoxyphenyl)ethyl]methylamino]propyl]tetradecanenitrile]", "values": [
      {"measurement": "calcium ion antagonist activity", "setting": "[2]", "value": "calcium ion antagonist activity analogous to verapamil hydrochloride"}
    ]},
    {"smiles": "NNc1nncc2ccccc12", "note": "[Apresoline]", "values": [
      {"measurement": "active in the hypertensive rat assay", "setting": "[1]", "value": "active"}
    ]},
    {"smiles": "C[C@H](CS)C(=O)N1CCC[C@H]1C(=O)O", "note": "[Captopril]", "values": [
      {"measurement": "active in the hypertensive rat assay", "setting": "[1]", "value": "active"}
    ]},
    {"smiles": "Clc1cccc(Cl)c1N=C1NCCN1", "note": "[Clonidine]", "values": [
      {"measurement": "active in the hypertensive rat assay", "setting": "[1]", "value": "active"}
    ]},
    {"smiles": "COc1ccc(C(C#N)(CCCN(C)C2CCc3ccccc3C2)C(C)C)cc1OC.O=C(O)CC(O)(CC(=O)O)C(=O)O", "note": "(stereo not drawn) [Example 8, 3,4-dimethoxy-α-(1-methylethyl)-α-[3-[N-methyl-N-(1,2,3,4-tetrahydro-2-naphthalenyl)amino]propyl]phenylacetonitrile, citrate (1:1)]", "values": [
      {"measurement": "therapeutic ratio for atrial-ventricular block and bradycardia", "setting": "[3]", "value": "more favorable therapeutic ratio for atrial-ventricular block and bradycardia than verapamil or diltiazem"},
      {"measurement": "slope of the dose-blood pressure response curve", "setting": "anesthetized beagle dogs; compared to verapamil and diltiazem", "value": "not as steep"},
      {"measurement": "Kb", "setting": "[4]", "value": 50.1, "unit": "nM"},
      {"measurement": "duration of antihypertensive effect", "setting": "[5]; [7]", "value": "approximately 12 hours"},
      {"measurement": "duration of antihypertensive effect", "setting": "[5]; [8]", "value": "> 24", "unit": "h"},
      {"measurement": "SHR -mmHg intravenous (mg/kg)", "setting": "[5]; 0.1 mg/kg", "value": -30, "unit": "mmHg"},
      {"measurement": "selectivity ratio", "setting": "in vivo; [9]", "value": 4},
      {"measurement": "selectivity ratio", "setting": "in vivo; [10]", "value": 3.1}
    ]},
    {"smiles": "COc1ccc(C(C#N)(CCCN(C)C2CCc3cc(OC)c(OC)cc3C2)C(C)C)cc1OC.O=C(O)CC(O)(CC(=O)O)C(=O)O", "note": "(stereo not drawn) [Example 9, 3,4-dimethoxy-α-(1-methylethyl)-α-[3-[N-methyl-N-(1,2,3,4-tetrahydro-6,7-dimethoxy-2-naphthalenyl)amino]propyl]phenylacetonitrile, citrate (1:1)]", "values": [
      {"measurement": "Kb", "setting": "[4]", "value": 126, "unit": "nM"},
      {"measurement": "SHR -mmHg intravenous (mg/kg)", "setting": "[5]; 3.0 mg/kg", "value": -30, "unit": "mmHg"}
    ]},
    {"smiles": "COc1ccc2c(c1)CCC(N(C)CCCC(C#N)(c1ccc(OC)c(OC)c1)C(C)C)C2.O=C(O)CC(O)(CC(=O)O)C(=O)O", "note": "(stereo not drawn) [Example 10, 3,4-dimethoxy-α-(1-methylethyl)-α-[3-[N-methyl-N-(1,2,3,4-tetrahydro-6-methoxy-2-naphthalenyl)amino]propyl]phenylacetonitrile, citrate (1:1)]", "values": [
      {"measurement": "Kb", "setting": "[4]", "value": 25.1, "unit": "nM"},
      {"measurement": "SHR -mmHg intravenous (mg/kg)", "setting": "[5]; 3.0 mg/kg", "value": -24, "unit": "mmHg"}
    ]},
    {"smiles": "COc1ccc(C(C#N)(CCCN(C)C2CCc3c(cccc3OC)C2)C(C)C)cc1OC.O=C(O)CC(O)(CC(=O)O)C(=O)O", "note": "(stereo not drawn) [Example 11, 3,4-dimethoxy-α-(1-methylethyl)-α-[3-[N-methyl-N-(1,2,3,4-tetrahydro-5-methoxy-2-naphthalenyl)amino]propyl]phenylacetonitrile, citrate (1:1)]", "values": [
      {"measurement": "Kb", "setting": "[4]", "value": 50.1, "unit": "nM"},
      {"measurement": "SHR -mmHg intravenous (mg/kg)", "setting": "[5]; 1.0 mg/kg", "value": -29, "unit": "mmHg"}
    ]},
    {"smiles": "COc1ccc2c(c1)CC(N(C)CCCC(C#N)(c1ccc(OC)c(OC)c1)C(C)C)CC2.O=C(O)CC(O)(CC(=O)O)C(=O)O", "note": "(stereo not drawn) [Example 12, 3,4-dimethoxy-α-(1-methylethyl)-α-[3-[N-methyl-N-(1,2,3,4-tetrahydro-7-methoxy-2-naphthalenyl)amino]propyl]phenylacetonitrile, citrate (1:1)]", "values": [
      {"measurement": "Kb", "setting": "[4]", "value": 39.8, "unit": "nM"},
      {"measurement": "SHR -mmHg intravenous (mg/kg)", "setting": "[5]; 1.0 mg/kg", "value": -20, "unit": "mmHg"}
    ]},
    {"smiles": "COc1ccc([C@@H]2Sc3ccccc3N(CCN(C)C)C(=O)[C@@H]2OC(C)=O)cc1", "note": "[diltiazem, reference compound]", "values": [
      {"measurement": "maximum hypotensive effect", "setting": "anesthetized beagle dogs", "value": "approximately the same maximum hypotensive effect"},
      {"measurement": "active in vascular calcium antagonism test", "setting": "[6]", "value": "active"},
      {"measurement": "selectivity ratio", "setting": "in vivo; [9]", "value": 0.53},
      {"measurement": "selectivity ratio", "setting": "in vivo; [10]", "value": 0.53}
    ]},
    {"smiles": "COC(=O)C1=C(C)NC(C)=C(C(=O)OC)C1c1ccccc1[N+](=O)[O-]", "note": "[nifedipine]", "values": [
      {"measurement": "active in vascular calcium antagonism test", "setting": "[6]", "value": "active"}
    ]},
    {"smiles": "COc1ccc(CCN(C)CCCC(C#N)(c2ccc(OC)c(OC)c2)C(C)C)cc1OC", "note": "(stereo not drawn) [verapamil, α[3-[[2-(3,4-dimethoxyphenyl)ethyl]methylamino]propyl]-3,4-dimethoxy-α-(1-methylethyl)hydrochloride, reference compound]", "values": [
      {"measurement": "maximum hypotensive effect", "setting": "anesthetized beagle dogs", "value": "approximately the same maximum hypotensive effect"},
      {"measurement": "duration of antihypertensive effect", "setting": "[5]; [7]", "value": 6, "unit": "h"},
      {"measurement": "duration of antihypertensive effect", "setting": "[5]; [8]", "value": 14, "unit": "h"},
      {"measurement": "SHR -mmHg intravenous (mg/kg)", "setting": "[5]; 0.3 mg/kg", "value": -30, "unit": "mmHg"}
    ]}
  ]
}
